{"source": "patent US9229013B2", "about": "“Vasoactive hormone-based stratification of patients suffering from diseases related to endothelial function/dysfunction” (B.R.A.H.M.S GMBH, priority 2009, dated 2016)", "tested_on": "patients suffering from shortness of breath (SOB), acute coronary syndrome, acute heart failure (AHF), arrhythmia, asthma exacerbation, bronchitis, chest pain …", "set-up": "species or system human", "details": "in vivo", "source_text": "Suitable threshold levels for the stratification of subjects into different groups (categories) have to be determined for each particular combination of vasoactive hormone or fragments thereof or precursors or fragments thereof, medication and disease. This can e.g. be done by grouping a reference population of patients according to their level of vasoactive hormone into certain quantiles, e.g. tertiles, quartiles, quintiles or even according to suitable percentiles. […] A HR around 1 (e.g. +/−0.1) indicates no elevated risk but also no benefit from medication for the particular group of patients.\nSurvival rates, i.e. the proportion of patients surviving at a given time after entry into the studies, are plotted in the appended figures over time for different combinations of a particular vasoactive hormone with a particular medication. The patients have been stratified into quintiles according to their respective hormone levels. […] For some cases, two or more quintiles have been pooled were appropriate. Hazard ratios (HR) have been calculated for various combinations of particular vasoactive hormones with particular medications. HR have also been calculated for particular quintiles and/or pooled quintiles and compared to overall HR for each combination.", "note": "Several values for one entry are separate records, joined by “and”; a condition that tells them apart may be missing. Equal entries are not always repeated."}
{"smiles": "CC(=O)CC(c1ccccc1)c1c(O)c2ccccc2oc1=O", "note": "(stereo not shown) [Warfarin]", "values": [{"measurement": "HR Medicament (overall patient group)", "value": "1.6 and 1 and 1.3 and 0.8"}]}
